The data set is described as follows: HILIC, Waters ACQUITY UPLC BEH Amide, 100 × 2.1 mm, 1.7 µm; A: water + 0.125% formic acid + 10 mM ammonium formate; B: 5% water + 95% acetonitrile + 0.125% formic acid + 10 mM ammonium formate; gradient (min/%B) 0/100 2/100 7.7/70 9.5/40 10.25/30 12.75/100 17/100. The conditions noted are these: stereoisomer not certain.
For the compound `COc1cc2c(=O)c(-c3ccc(O)cc3)coc2cc1O` [Glycitein], the LC retention time stood at 1.32 min. The figure for `CC(C)CC(NC(=O)CN)C(=O)O` (stereo unspecified) [Glycyl-leucine] is 8.14 min; for `CC(C)CC(NC(=O)C(COC(C)(C)C)NC(=O)C(Cc1ccc(O)cc1)NC(=O)C(CO)NC(=O)C(Cc1c[nH]c2ccccc12)NC(=O)C(Cc1cnc[nH]1)NC(=O)C1CCC(=O)N1)C(=O)NC(CCCN=C(N)N)C(=O)N1CCCC1C(=O)NNC(N)=O` (stereo unspecified) [Goserelin] it is 7.83 min. With `CN1C2CCCC1CC(NC(=O)c1nn(C)c3ccccc13)C2` (stereo unspecified) [Granisetron] the figure was 4.12 min. In the case of `NC(N)=NCC(=O)O` [Guanidinoacetic acid], the LC retention time was found to be 8.16 min. With `Nc1nc2nc[nH]c2c(=O)[nH]1` [Guanine] the figure was 6.4 min; with `Nc1nc2c(ncn2C2OC3COP(=O)(O)OC3C2O)c(=O)[nH]1` (stereo unspecified) [Guanosine-3',5'-cyclic monophosphate], 8.39 min; with `Nc1nc2c(ncn2C2OC(CO)C(O)C2O)c(=O)[nH]1` (stereo unspecified) [Guanosine], 7.33 min. With `CC1CC2C3CC(F)C4=CC(=O)C(Cl)=CC4(C)C3(F)C(O)CC2(C)C1(O)C(=O)CO` (stereo unspecified) [Halometasone] the figure was 1.12 min; with `O=C(CCCN1CCC(O)(c2ccc(Cl)cc2)CC1)c1ccc(F)cc1` [Haloperidol], 2.31 min; with `CCCCCCCCCCCCCCCCC(=O)O` [Heptadecanoic acid], 3.01 min. With `CCCCCC(=O)O` [Hexanoic acid] the figure was 4.89 min.

As for `CCCCCC(=O)OC(CC(=O)[O-])C[N+](C)(C)C` [Hexanoyl-L-carnitine], the LC retention time was 5.09 min. With `CC(CCCCC(=O)Nc1ccc(C(F)(F)F)cc1)NCCc1cnc[nH]1` (stereo unspecified) [Histamine-trifluoromethyltoluide] the figure was 5.3 min; with `NCCc1cnc[nH]1` [Histamine], 8.29 min. The figure for `NC(Cc1cnc[nH]1)C(=O)O` (stereo unspecified) [Histidine] is 9.48 min; for `NC(N)=NCCCCC(N)C(=O)O` (stereo unspecified) [Homoarginine] it is 9.34 min. With `NC(CCS)C(=O)O` (stereo unspecified) [Homocysteine], the LC retention time amounted to 9.58 min. In the case of `NC(CCSSCCC(N)C(=O)O)C(=O)O` (stereo unspecified) [Homocystine], the LC retention time amounted to 9.58 min. The figure for `COC(=O)CC(O)(CCCC(C)(C)O)C(=O)OC1C(OC)=CC23CCCN2CCc2cc4c(cc2C13)OCO4` (stereo unspecified) [Homoharringtonine] is 3.24 min; for `NC(CCO)C(=O)O` (stereo unspecified) [Homoserine] it is 8.29 min. With `COc1ccc(CCN)cc1OC` [Homoveratrylamine], the LC retention time came to 4.78 min.

With `CC=C1C2C=C(C)CC1(N)c1ccc(=O)[nH]c1C2` (stereo unspecified) [Huperzine], the LC retention time was 5.74 min. With `O=C(O)CCc1ccccc1` [Hydrocinnamic acid] the figure was 8.71 min. For `COc1ccc2c3c1OC1C(=O)CCC4C(C2)N(C)CCC314` (stereo unspecified) [Hydrocodone], the LC retention time came to 3.8 min.

In the case of `CC12CCC(=O)C=C1CCC1C2C(O)CC2(C)C1CCC2(O)C(=O)CO` (stereo unspecified) [Hydrocortisone], the LC retention time was 2.56 min.

With `CN1CCC23c4c5ccc(O)c4OC2C(=O)CCC3C1C5` (stereo unspecified) [Hydromorphone], the LC retention time is 5.22 min.

For `O=C(O)C1CC(O)CN1` (stereo unspecified) [Hydroxyproline], the LC retention time worked out at 8.14 min.

Regarding `O=c1[nH]cnc2nc[nH]c12` [Hypoxanthine], the LC retention time was found to be 4.99 min. For `COc1ccc(-c2oc3c(CC=C(C)C)c(OC4OC(CO)C(O)C(O)C4O)cc(O)c3c(=O)c2OC2OC(C)C(O)C(O)C2O)cc1` (stereo unspecified) [Icarin], the LC retention time was 4.74 min. The figure for `CC(=O)C1(O)Cc2c(O)c3c(c(O)c2C(OC2CC(N)C(O)C(C)O2)C1)C(=O)c1ccccc1C3=O` (stereo unspecified) [Idarubicin] is 5.42 min. With `COC1=C(OC)C(=O)C(CCCCCCCCCCO)=C(C)C1=O` [Idebenone] the figure was 0.96 min. `CC(C(O)c1ccc(O)cc1)N1CCC(Cc2ccccc2)CC1` (stereo unspecified) [Ifenprodil]: the LC retention time came to 3.17 min. The figure for `Cc1ccc(NC(=O)c2ccc(CN3CCN(C)CC3)cc2)cc1Nc1nccc(-c2cccnc2)n1` [Imatinib] is 5.36 min; for `c1c[nH]cn1` [Imidazole] it is 4.53 min; for `O=C1C(c2c(O)[nH]c3ccccc23)=Nc2ccccc21` [Indarubicin] it is 1.07 min. As to `CNC1CC(c2ccc(Cl)c(Cl)c2)c2ccccc21` (stereo unspecified) [Indatraline], the LC retention time amounted to 2.88 min. As for `CC(C)(C)NC(=O)C1CN(Cc2cccnc2)CCN1CC(O)CC(Cc1ccccc1)C(=O)NC1c2ccccc2CC1O` (stereo unspecified) [Indinavir], the LC retention time came to 2.17 min.

On to `NC(=O)Cc1c[nH]c2ccccc12` [Indole-3-acetamide], for which the LC retention time amounted to 1.36 min. With `OCc1c[nH]c2ccccc12` [Indole-3-carbinol] the figure was 1.24 min. With `O=Cc1c[nH]c2ccccc12` [Indole-3-carboxaldehyde] the figure was 1.16 min; with `O=C(O)c1c[nH]c2ccccc12` [Indole-3-carboxylic acid], 1.41 min; with `O=C(O)C(=O)Cc1c[nH]c2ccccc12` [Indole-3-pyruvic acid], 5.11 min. Consider `O=C(O)C(O)Cc1c[nH]c2ccccc12` (stereo unspecified) [Indolelactic acid], for which the LC retention time amounted to 2.25 min. The figure for `COc1ccc2c(c1)c(CC(=O)O)c(C)n2C(=O)c1ccc(Cl)cc1` [Indomethacin] is 1.08 min; for `O=c1[nH]cnc2c1ncn2C1OC(CO)C(O)C1O` (stereo unspecified) [Inosine] it is 6.19 min. For the compound `Nc1c2c(nc3c1CCC3)CCCC2` [Ipidacrine], the LC retention time amounted to 3.33 min.

Turning to `CC(C)Oc1ccc2c(=O)c(-c3ccccc3)coc2c1` [Ipriflavone], the LC retention time came to 0.94 min.

For `CCCCC1=NC2(CCCC2)C(=O)N1Cc1ccc(-c2ccccc2-c2nn[nH]n2)cc1` [Irbesartan], the LC retention time came to 1.16 min. With `CCc1c2c(nc3ccc(OC(=O)N4CCC(N5CCCCC5)CC4)cc13)-c1cc3c(c(=O)n1C2)COC(=O)C3(O)CC` (stereo unspecified) [Irinotecan], the LC retention time was found to be 5.03 min. Take `Nc1nc(N)nc(-c2cc(Cl)ccc2Cl)n1` [Irsogladine]: the LC retention time is 1.25 min. As to `CC(C)CN` [Isobutylamine], the LC retention time turned out to be 5.04 min. For the compound `CC(C)C(=O)O` [Isobutyric acid], the LC retention time is 1.77 min. The figure for `CCC(C)C(N)C(=O)O` (stereo unspecified) [Isoleucine] is 7.18 min; for `OCC1OC(OCC2OC(O)C(O)C(O)C2O)C(O)C(O)C1O` (stereo unspecified) [Isomaltose] it is 7.19 min. The figure for `CC(C)=CCNc1ncnc2nc[nH]c12` [Isopentenyladenine] is 1.81 min. The figure for `COc1cc(-c2oc3cc(O)cc(O)c3c(=O)c2OC2OC(COC3OC(C)C(O)C(O)C3O)C(O)C(O)C2O)ccc1O` (stereo unspecified) [Isorhamnetin-3-O-rutinoside] is 6.02 min; for `COc1cc(-c2oc3cc(O)cc(O)c3c(=O)c2OC2OC(CO)C(O)C(O)C2O)ccc1O` (stereo unspecified) [Isorhamnetin-3-glucoside] it is 4.49 min. For `CC(C)CC(=O)OC(CC(=O)[O-])C[N+](C)(C)C` [Isovaleryl-L-carnitine], the LC retention time was 5.36 min. Turning to `Nc1nc2[nH]c(=O)cnc2c(=O)[nH]1` [Isoxanthopterin], the LC retention time amounted to 6.41 min.

For `COC(=O)C1=C(C)NC(C)=C(C(=O)OC(C)C)C1c1cccc2nonc12` (stereo unspecified) [Isradipine], the LC retention time was 0.95 min. As for `COc1ccc(C(=O)NCc2ccc(OCCN(C)C)cc2)cc1OC` [Itopride], the LC retention time was found to be 3.65 min.

Take `CCC(C)n1ncn(-c2ccc(N3CCN(c4ccc(OCC5COC(Cn6cncn6)(c6ccc(Cl)cc6Cl)O5)cc4)CC3)cc2)c1=O` (stereo unspecified) [Itraconzaole]: the LC retention time came to 0.97 min. For the compound `CC1OC(OCC2OC(Oc3c(-c4ccc(O)cc4)oc4cc(O)cc(O)c4c3=O)C(O)C(O)C2O)C(O)C(O)C1O` (stereo unspecified) [Kaempferol-3-O-rutinoside], the LC retention time was 6.09 min. For the compound `O=c1c(O)c(-c2ccc(O)cc2)oc2cc(O)cc(O)c12` [Kaempferol], the LC retention time was 1.4 min. As to `CC(=O)N1CCN(c2ccc(OCC3COC(Cn4ccnc4)(c4ccc(Cl)cc4Cl)O3)cc2)CC1` (stereo unspecified) [Ketoconazole], the LC retention time stood at 1.73 min.

As to `CC(C)C(=O)C(=O)O` [Ketoisovaleric acid], the LC retention time was 2.84 min. With `CN1CCC(=C2c3ccccc3CC(=O)c3sccc32)CC1` [Ketotifen] the figure was 2.71 min; with `COC1C(O)CC(=O)OC(C)CC=CC=CC(O)C(C)CC(CC=O)C1OC1OC(C)C(OC2CC(C)(O)C(OC(=O)CC(C)C)C(C)O2)C(N(C)C)C1O` (stereo unspecified) [Kitasamycin], 2.04 min. The figure for `O=C(O)c1cc(=O)c2ccccc2[nH]1` [Kynurenic acid] is 6.15 min; for `Nc1ccccc1C(=O)CC(N)C(=O)O` (stereo unspecified) [Kynurenine] it is 6.98 min; for `CS(=O)(=O)Nc1ccc(Cc2noc(-c3ccc4[nH]cc(CCN)c4c3)n2)cc1` [L-694,247] it is 5.25 min. For `NC(CCC(=O)NC(CSSCC(N)C(=O)O)C(=O)NCC(=O)O)C(=O)O` [L-Cysteine-glutathione disulfide], the LC retention time was determined as 10.2 min. Consider `NC(=O)NCCCC[C@H](N)C(=O)O` [L-Homocitrulline], for which the LC retention time turned out to be 8.73 min.

For the compound `CCOC(=O)C1=C(C)NC(C)=C(C(=O)OCC)C1c1ccccc1C=CC(=O)OC(C)(C)C` [Lacidipine], the LC retention time turned out to be 0.94 min. With `CC(O)C(N)=O` (stereo unspecified) [Lactamide] the figure was 1.74 min.

These data come from the RepoRT retention time repository.
